Reference: patent US20130109646A1, “METHOD FOR TREATING GLAUCOMA OR OCULAR HYPERTENSION WITH AN ADENOSINE DERIVATIVE” (priority 2007, published 2013)

Assays:
[1] = tested on: intraocular pressure; assay: Test for intraocular pressure reduction using Japanese white rabbits; format: in vivo; conditions: male Japanese white rabbits; for Intraocular pressure reduction degree: single dose into one eye, at 2 or 4 hours after instillation at which the pressure decreased most, average of 5 to 6 cases; for intraocular pressure lowering action (in words): single instillation, 0.003 to 0.2% (w/v) depending on compound
Description: In order to examine the usefulness of the present compound as a preventive or therapeutic agent for glaucoma or ocular hypertension, an intraocular pressure lowering effect when the present compound was administered to Japanese white rabbits (sex: male) was evaluated and studied. As the test compound, Compound A, Compound B, Compound C, Compound E, Compound I and Compound J were used. According to the preparation method for an eye drop described above, each test liquid containing Compound A (0.003% (w/v)), Compound B (0.2% (w/v)), Compound C (0.01% (w/v)), Compound E (0.01% (w/v)), Compound I (0.01% (w/v)) or Compound J (0.01% (w/v)) was prepared. Specifically, to 10 mM phosphate buffer or 1.7% borate buffer, polysorbate 80 and any of the test compounds were added and dissolved or dispersed therein. Then, the pH of the resulting solution or dispersion was adjusted to 5 with sodium hydroxide and/or dilute hydrochloric acid, whereby a test liquid containing each test compound was prepared (only in the case of Compound B, the pH of the test liquid was adjusted to 7). 1) Just before any of the test liquids was administered, one drop of 0.4% oxybuprocaine hydrochloride eye drop was instilled into both eyes of each experimental animal to achieve local anesthesia, and the intraocular pressure was measured using an applanation tonometer. This intraocular pressure was determined as an initial intraocular pressure. 2) Any of the prepared test liquids was administered into one eye of each experimental animal in a single dose. The other eye was left untreated, or a vehicle was instilled into the eye according to the same schedule. 3) After the test liquid was administered, the intraocular pressure of both eyes of each experimental animal was measured at predetermined times (at […] after administration). Incidentally, before measurement, one drop of 0.4% oxybuprocaine hydrochloride eye drop was instilled into both eyes of each experimental animal to achieve local anesthesia. The intraocular pressure reduction degree of each test compound administration group at each measurement time was calculated from the following calculation formula. Intraocular pressure reduction degree (mmHg)=|IOP (Ad−t)−IOP(Ad−0) Equation 2 IOP (Ad-t): Intraocular pressure of the eye into which the test compound was administered at t hours after administration of test compound IOP (Ad-0): Initial intraocular pressure of the eye into which the test compound was administered

[2] = tested on: intraocular pressure; assay: Test for intraocular pressure reduction using cynomolgus monkeys; format: in vivo; conditions: male cynomolgus monkeys; for Maximum intraocular pressure reduction degree: 0.1% (w/v) test liquid instilled into one eye twice a day for 7 days, maximum over 2, 4, 6, 8 h after administration (Compound B: pH 7, 1, 2, 4, 6 h), average of 5 to 6 cases
Description: In order to examine the usefulness of the present compound as a preventive or therapeutic agent for glaucoma or ocular hypertension, an intraocular pressure lowering effect when the present compound was administered to cynomolgus monkeys (sex: male) was evaluated and studied. As the test compound, Compound A, Compound B, Compound C, Compound D, Compound E, Compound F, Compound G, Compound H and Compound I were used.
1) Just before a test liquid was administered, one drop of 0.4% oxybuprocaine hydrochloride eye drop was instilled into both eyes of each experimental animal to achieve local anesthesia, and the intraocular pressure was measured using an applanation tonometer. This intraocular pressure was determined as an initial intraocular pressure.
2) A 0.1% (w/v) test liquid (a solution or suspension) was prepared, and the test liquid was instilled into one eye of each experimental animal twice a day for 7 days. The other eye was left untreated, or a vehicle was instilled into the eye according to the same schedule. Incidentally, the test liquid was prepared according to the preparation method for an eye drop described above. Specifically, to 10 mM phosphate buffer or 1.7% borate buffer, polysorbate 80 and any of the test compounds were added and dissolved or dispersed therein. Then, the pH of the resulting solution or dispersion was adjusted to 5 with sodium hydroxide and/or dilute hydrochloric acid, whereby a test liquid containing each test compound was prepared (only in the case of Compound B, the pH of the test liquid was adjusted to 7).
3) After the test liquid was administered, the intraocular pressure of both eyes of each experimental animal was measured at predetermined times (at 2, 4, 6, and 8 hours after administration) (only in the case of Compound B, the intraocular pressure was measured at 1, 2, 4 and 6 hours after administration). Incidentally, before measurement, one drop of 0.4% oxybuprocaine hydrochloride eye drop was instilled into both eyes of each experimental animal to achieve local anesthesia.
The intraocular pressure reduction degree of each test compound administration group at each measurement time was calculated from the following calculation formula. Among the obtained intraocular pressure reduction degrees at respective measurement times, the maximum value was determined as a maximum intraocular pressure reduction degree.
Intraocular pressure reduction degree(mmHg)=|IOP (D−t)−IOP(D−0)| Equation 1
IOP (D-t): Intraocular pressure of the eye into which the test compound was administered at t hours after administration of test compound IOP (D-0): Initial intraocular pressure of the eye into which the test compound was administered

Row | Compound | Maximum intraocular pressure reduction degree [2] | Intraocular pressure reduction degree ([1]; 0.01% (w/v) test liquid) | further results
1 | COC(=O)N1CCC(CC#Cc2nc(N)c3ncn([C@@H]4O[C@H](C(=O)NC5CC5)[C@@H](O)[C@H]4O)c3n2)CC1 [Compound A, 4-{3-[6-amino-9-((2R,3R,4S,5S)-5-cyclopropylcarbamoyl-3,4-dihydroxytetrahydrofuran-2-yl)-9H-purin-2-yl]-2-propynyl}-piperidine-1-carboxylic acid methyl ester] | 4.9 mmHg | – | Intraocular pressure reduction degree ([1]; 0.003% (w/v) test liquid): 3.8 mmHg; intraocular pressure lowering action (in words) [1]: significantly higher intraocular pressure lowering action among the present compounds; intraocular pressure lowering action (in words) ([2]; 0.1% (w/v) instilled twice a day for 7 days): significantly higher intraocular pressure lowering action among the present compounds; lowering of trough intraocular pressure by repeated instillation (in words) ([2]; 0.1% (w/v) repeated instillation (BID)): exhibited a high lowering action; trough intraocular pressure value on day 7, lower than that in the vehicle administration group ([2]; 0.1% (w/v) repeated instillation (BID) for 7 days, difference from vehicle group): 1.0 mmHg
2 | CCNC(=O)[C@H]1O[C@@H](n2cnc3c(N)nc(C#CCC4CCC(C(=O)OC)CC4)nc32)[C@H](O)[C@@H]1O (stereo partly drawn) [Compound B, 4-{3-[6-amino-9-((2R,3R,4S,5S)-5-ethylcarbamoyl-3,4-dihydroxytetrahydrofuran-2-yl)-9H-purin-2-yl]-2-propynyl}-cyclohexane-1-carboxylic acid methyl ester] | 2.2 mmHg | – | Intraocular pressure reduction degree ([1]; 0.2% (w/v) test liquid (pH 7)): 2.1 mmHg
3 | CCNC(=O)[C@H]1O[C@@H](n2cnc3c(N)nc(C#CCC4CCN(C(=O)OC)CC4)nc32)[C@H](O)[C@@H]1O [Compound C, 4-{3-[6-amino-9-((2R,3R,4S,5S)-5-ethylcarbamoyl-3,4-dihydroxytetrahydrofuran-2-yl)-9H-purin-2-yl]-2-propynyl}-piperidine-1-carboxylic acid methyl ester] | 2.7 mmHg | 2.8 mmHg | –
4 | CCNC(=O)[C@H]1O[C@@H](n2cnc3c(N)nc(C#CCC4CCN(C(=O)OCC)CC4)nc32)[C@H](O)[C@@H]1O [Compound D, 4-{3-[6-amino-9-((2R,3R,4S,5S)-5-ethylcarbamoyl-3,4-dihydroxytetrahydrofuran-2-yl)-9H-purin-2-yl]-2-propynyl}-piperidine-1-carboxylic acid ethyl ester] | 2.9 mmHg | – | –
5 | CCNC(=O)[C@H]1O[C@@H](n2cnc3c(N)nc(C#CCC4CCN(C(=O)OC(C)C)CC4)nc32)[C@H](O)[C@@H]1O [Compound E, 4-{3-[6-amino-9-((2R,3R,4S,5S)-5-ethylcarbamoyl-3,4-dihydroxytetrahydrofuran-2-yl)-9H-purin-2-yl]-2-propynyl}-piperidine-1-carboxylic acid isopropyl ester] | 2.9 mmHg | 2.6 mmHg | –
6 | Nc1nc(C#CCC2CCN(C(=O)Oc3ccc(F)cc3)CC2)nc2c1ncn2[C@@H]1O[C@H](C(=O)NC2CC2)[C@@H](O)[C@H]1O [Compound F, 4-{3-[6-amino-9-((2R,3R,4S,5S)-5-cyclopropylcarbamoyl-3,4-dihydroxytetrahydrofuran-2-yl)-9H-purin-2-yl]-2-propynyl}-piperidine-1-carboxylic acid 4-fluorophenyl ester] | 2.7 mmHg | – | –
7 | COc1ccccc1OC(=O)N1CCC(CC#Cc2nc(N)c3ncn([C@@H]4O[C@H](C(=O)NC5CC5)[C@@H](O)[C@H]4O)c3n2)CC1 [Compound G, 4-{3-[6-amino-9-((2R,3R,4S,5S)-5-cyclopropylcarbamoyl-3,4-dihydroxytetrahydrofuran-2-yl)-9H-purin-2-yl]-2-propynyl}-piperidine-1-carboxylic acid 2-methoxyphenyl ester] | 2.7 mmHg | – | –
8 | COc1ccc(OC(=O)N2CCC(CC#Cc3nc(N)c4ncn([C@@H]5O[C@H](C(=O)NC6CC6)[C@@H](O)[C@H]5O)c4n3)CC2)cc1 [Compound H, 4-{3-[6-amino-9-((2R,3R,4S,5S)-5-cyclopropylcarbamoyl-3,4-dihydroxytetrahydrofuran-2-yl)-9H-purin-2-yl]-2-propynyl}-piperidine-1-carboxylic acid 4-methoxyphenyl ester] | 2.3 mmHg | – | –
9 | Nc1nc(C#CCC2CCN(C(=O)Oc3ccc(F)c(F)c3)CC2)nc2c1ncn2[C@@H]1O[C@H](C(=O)NC2CC2)[C@@H](O)[C@H]1O [Compound I, 4-{3-[6-amino-9-((2R,3R,4S,5S)-5-cyclopropylcarbamoyl-3,4-dihydroxytetrahydrofuran-2-yl)-9H-purin-2-yl]-2-propynyl}-piperidine-1-carboxylic acid 3,4-difluorophenyl ester] | 1.8 mmHg | 1.7 mmHg | –
10 | Nc1nc(C#CCC2CCN(C(=O)OC3CCC3)CC2)nc2c1ncn2[C@@H]1O[C@H](C(=O)NC2CC2)[C@@H](O)[C@H]1O [Compound J, 4-{3-[6-amino-9-((2R,3R,4S,5S)-5-cyclopropylcarbamoyl-3,4-dihydroxytetrahydrofuran-2-yl)-9H-purin-2-yl]-2-propynyl}-piperidine-1-carboxylic acid cyclobutyl ester] | – | 4.1 mmHg | intraocular pressure lowering action (in words) [1]: significantly higher intraocular pressure lowering action among the present compounds
